Assay results from US8318424B2, “High-throughput RNA structure analysis” (The University of North Carolina at Chapel Hill, priority 2006, dated 2012).

Columns and labels:
[1] = Reagent hydrolysis followed by UV absorbance of the aminobenzoate product; format: physicochemical
Description: One (1) μL NMIA in DMSO was added to the (+) NMIA tube and 1 μL neat DMSO was added to the (−) NMIA tube. The tubes were then mixed well. The reaction was incubated for 5 NMIA hydrolysis half-lives. To estimate the NMIA half-life between 15° C. and 75° C., the following equation was used: half life(minutes)=360×exp[−0.102×temperature(° C.)]. […] Thus, at 37° C., the reaction was incubated for about 45 minutes.
(§1) Hydrolysis was followed by adding (1.5 mM NMIA or 2.0 mM 1M7 in 300 μL DMSO) reagent to 1.1× buffer (2.7 mL, 6.7 mM MgCl2, 111 mM NaCl, 111 mM HEPES (pH 8.0)) equilibrated at 37° C. in a cuvette. Pseudo-first-order rates were obtained by monitoring the absorbance of the hydrolysis product (at 360 nm for 2-methylaminobenzoate and 430 nm for 2-methylamino-4-nitrobenzoate). Rates of adduct formation for [^32P]-labeled pAp-ethyl (10,000 cpm/μL) were obtained by adding 10% (v/v) reagent (5 mM final NMIA or 1M7 in DMSO) to 1.1× reaction buffer, quenching the reaction with 1 vol 250 mM dithiothreitol, resolving by gel electrophoresis (30% polyacrylamide; 29:1 acrylamide:bisacrylamide; 0.4 mm×28.5 cm×23 cm; 30 W; 45 minutes), and quantifying by phosphorimaging. Reaction rates were obtained using an equation that accounts for parallel reaction of NMIA or 1M7 by 2′-O-adduct formation (kadduct) and by hydrolysis (khydrolysis): fraction product=1−exp[(kadduct[reagent]/khydrolysis)(e^−(khydrolysis)t−1)]. Synthesis of Bacillus subtilis RNase P RNA
The reagent hydrolysis was monitored as the increase in UV absorbance of the aminobenzoate products. […] In contrast, NMIA required over 20 minutes to react to completion (FIG. 5).

pAp-ethyl = test: 2′-O-adduct formation with [32P]-labeled pAp-ethyl; details: for change in rate of reaction with pAp-ethyl from 0 to 20 mM Mg2+: 0 to 20 mM Mg2+ (FIG. 6)
Description: as §1
The ability of each compound to react with 3′-phosphoethyl-5′-adenosine monophosphate (pAp-ethyl) was then evaluated. pAp-ethyl contains a 2′-hydroxyl and 3′-phosphodiester monoanion.

NCp7-RNA interactions = target: T1, NCp7-RNA interactions (Human immunodeficiency virus type 1 group M subtype B, UniProt P12493); test: AT-2 treatment of HIV-1 virions analyzed by hSHAPE; details: in virio compared with AT-2 treated virions
T1 construct: expressed in transfected cells; host or cells: 293T cells cotransfected with pNL4-3 and pHCMV-G; the protein sits in the released virus particles
Description: The most prominent protein ligand for genomic RNA in mature HIV virions is the nucleocapsid protein. The nucleocapsid protein (NCp7) contains two highly conserved zinc-knuckle motifs comprised of cysteine and histidine residues that coordinate zinc ions and bind preferentially to guanosine. These compact motifs are flanked by positively charged residues that interact at adjacent RNA elements. Zinc ejecting agents such as 2,2′-dithioldipyridine (or AT-2) quantitatively disrupt interactions between the zinc ion and its cysteine ligands to compromise NCp7-RNA interactions, but leave the surface of the virus particle intact. Nucleocapsid-RNA interactions were disrupted in situ by treating virions with AT-2. The resulting genomic RNA was analyzed using hSHAPE.
Aldrithiol-2 (AT-2, systematic name 2,2′-dithiodipyridine; 0.5 M in DMSO, 2.0 mL) or DMSO (2.0 mL) was added to 1.0 L virus supernatant and incubated overnight at 4° C. Virus particles from the (+) and (−) AT-2 experiments were pelleted separately by centrifugation (110,000 g, 4° C., 1.5 hours) through a 20% (w/v) sucrose cushion in phosphate buffered saline. Pellets were resuspended in 1.0 mL NMIA reaction buffer (50 mM Hepes (pH 8), 200 mM NaCl, 0.1 mM EDTA, and 10% fetal bovine serum). […]

retroviral membrane = test: NMIA modification of genomic RNA inside HIV-1 viral particles
Description: The structure of HIV-1 genomic RNA inside infectious virions was analyzed by treating viral particles with NMIA and then extracting and processing the modified RNA (the in virio state). Numerous reproducible differences between the ex virio and in virio states were observed that report virion-specific RNA structures and RNA-protein interactions.
Concentrated samples of either purified viral particles or particles treated with AT-2 (500 μL) in NMIA reaction buffer were treated with NMIA (50 μL, 100 mM) or neat DMSO (50 μL) for 50 minutes at 37° C. The virus particle production, AT-2 treatment, and NMIA modification steps were performed as a single continuous process and without intermediate storage steps.

[2] = Solubility of reagent stock in DMSO; format: physicochemical; details: organic solvent or mixture; 10× stock in DMSO; read-out: stock concentration limit due to solubility of the reagent
Description: The concentration of this solution can vary with RNA length. For RNA reads of 100, 200 and 300 nucleotides, 10×NMIA concentrations of 130, 65 and 30 mM, can be used.

| Compound | time until reaction is complete ([1]; 37° C., pH 8.0 buffer) | half-life at 0.2 mM ([1]; HEPES buffer with 10% DMSO, 37° C., pH 8.0 buffer, 10% DMSO) [min] | dependence of hydrolysis on Mg2+ concentration ([1]; control experiments) | increase in rates of hydrolysis and of 2′-hydroxyl acylation relative to NMIA (pAp-ethyl) [fold] | change in rate of reaction with pAp-ethyl from 0 to 20 mM Mg2+ (pAp-ethyl) | rate of reaction with pAp-ethyl, compared with NMIA (pAp-ethyl; 5 mM reagent) | specificity of the effect of AT-2 treatment on SHAPE reactivity of genomic RNA (NCp7-RNA interactions) | time required to react to completion ([1]; 37° C., pH 8.0 buffer) | half-life ([1]; pH 8, 37° C., from half life = 360×exp[−0.102×temperature], read-out: NMIA hydrolysis half-life) [min] | passage across the retroviral membrane (retroviral membrane) | solubility [2] [mM] |
| --- | --- | --- | --- | --- | --- | --- | --- | --- | --- | --- | --- |
| Cn1c(=O)oc(=O)c2ccc([N+](=O)[O-])cc21 [1M7, 1-methyl-7-nitroisatoic anhydride] | about 70 seconds | 0.233 | independent of Mg^2+ concentration | 20 | negligible | significantly more rapidly |  |  |  |  |  |
| c1ccc(SSc2ccccn2)nc1 [AT-2, 2,2′-dithiodipyridine] |  |  |  |  |  |  | highly specific |  |  |  |  |
| Cn1c(=O)oc(=O)c2ccccc21 [NMIA, N-methylisatoic anhydride] |  |  |  |  | greater than 2 fold |  |  | over 20 minutes | 8.3 | readily crosses the retroviral membrane | ≤ 130 |
